Measurements: patent publication US7005425B2, “Method for treating arrhythmias” (CV Therapeutics, Inc., priority 2002, dated 2006)

Assay: Plasma concentrations of CVT-510 in rats (LC-MS-MS)
Format: in vivo, Rats (Sprague Dawley)
Conditions: subcutaneous osmotic pump, 20 μg/kg/hr
Source text: A subgroup of animals was implanted with osmotic pumps containing CVT-510 for combination experiments. After 7 days or more of having been implanted with radio-telemetry transmitters for recording ECG (L-2), and verifying that the transmitters were functioning, each rat was implanted with an Alzet mini-osmotic pump. Under anesthesia (see above) and sterile conditions, one Alzet mini-osmotic pump, was implanted subcutaneously (SC) in the interscapular area of each rat. The osmotic pumps were filled with either vehicle or CVT-510 (to deliver a dose of 20 μg/kg/hr).
Carotid artery was catheterized to obtain serial blood samples for the analysis of CVT-510 plasma concentrations. Animals were anesthetized by peritoneal injection of a “cocktail” (1 ml/kg) containing Ketamine (75 mg/ml), Xylazine (5 mg/ml), and Acepromazine (1 mg/ml). After a 20–30 min. of induction of anesthesia, a midline incision was made in the neck region to expose the external carotid artery. […]
CVT-510 plasma level analysis was performed as follows. […] Concentration of CVT-510 in protein precipitation filtrates were analyzed by LC-MS-MS using a Waters Alliance 2690 HPLC system (Millford, Mass.) coupled to a Waters/Micromass Quattro Ultima triple quadrupole mass spectrometer (Millford, Mass.). […]

With OC[C@H]1O[C@@H](n2cnc3c(N[C@@H]4CCOC4)ncnc32)[C@H](O)[C@@H]1O [CVT-510, 6-(3-(R)-aminotetrahydrofuranyl)purine riboside] the “plasma concentration of CVT-510” value was 7.5 ± 1 ng/mL.
